The text below walks through data of ChEMBL document CHEMBL4706759, “Novel Substituted Pyrazines as Splicing Modulators for Modulating Splicing of mRNA and Uses Thereof for Treating Diseases” (ACS Med Chem Lett, 2021).

The target of assay [1] is SMN2 pre-mRNA. Put plainly: Modulation of SMN2 mRNA splicing in spinal muscular atrophy patient fibroblasts measured after 24 hrs by TaqMan qPCR analysis. The format is tissue-based, Homo sapiens. To be noted: fibroblast. For orientation: Quantitative PCR measures a nucleic acid by following its amplification.
Assay [2] has as its target SMN2 pre-mRNA. Kind of assay: Modulation of SMN2 mRNA splicing in spinal muscular atrophy patient fibroblasts assessed as change in SMN protein expression measured after 48 hrs by MSD analysis. Also noted: species or system Homo sapiens. Conditions: fibroblast.

The term EC50 denotes the concentration needed to bring the measured effect to its halfway point. As for `CN(c1cnc(-c2ccc(-c3ccn(C)c(=O)c3)cc2O)cn1)[C@@H]1C[C@H]2CCC[C@H](N2)[C@@H]1F`, the EC50 was determined as 51 nM in assay [1] and 0.01 nM in assay [2].
The matching figures for `CN(c1cnc(-c2ccc(-c3cn[nH]c3)cc2O)cn1)[C@H]1C[C@]2(C)CCC[C@@](C)(N2)[C@H]1F`: 16 nM and 0.01 nM.
The matching figures for `CN(c1cnc(-c2ccc(-c3cn[nH]c3)cc2O)cn1)[C@H]1C[C@@H]2CC[C@@H](N2)[C@H]1F`: 16 nM and 0.01 nM.
With `CN(c1cnc(-c2ccc(-c3cn[nH]c3)cc2O)cn1)[C@H]1C[C@@H]2CCC[C@@H](N2)[C@H]1F`, the results for the concentration for a half-maximal effect (EC50) in assay [1] and in assay [2] were 16 nM and 0.01 nM, respectively.
Taken in the same sequence, the figures for `CN(c1cnc(-c2ccc(-c3cn[nH]c3)cc2O)cn1)[C@H]1C[C@@H]2CC[C@@](C)(N2)[C@H]1F` were 16 nM and 0.01 nM.
In the case of `CN(c1cnc(-c2cc(F)c(-c3cn[nH]c3)cc2O)cn1)[C@H]1C[C@@H]2CC[C@@H](N2)[C@H]1F`, the EC50 in assay [1] was 16 nM; in assay [2], 0.01 nM.
